Columns and labels:
B. subtilis 168 [1] = experiment: fitness (endpoint OD595 vs no drug) (fraction); higher = more growth
Method in brief: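 Growth medium was TSB, LB Lennox or CY, and plates were kept at 37 °C. Inoculation was at OD595 0.01 in 384-well plates, at 30 µl per well or 55 µl for S. pneumoniae. OD595 was monitored every 30 min for 14 h and background-subtracted using the first reading. Fitness is the optical density on entering stationary phase divided by the robust mean of no-drug controls, with values capped at 1.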

S. aureus DSM 20231 = experiment: Bliss interaction score (quartile over a dose matrix) (fitness difference); higher = more antagonism (negative = synergy)
Method in brief: (§1)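 The Bliss score is observed minus expected fitness, where expected fitness is the product of the single-drug fitness values inferred from the combination data. Fitness is the OD595 at the onset of stationary phase over the plate's robust no-drug mean, capped at 1. Scores are summarised by quartiles over technical, biological and donor/recipient replicates.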

B. subtilis 168 [2] = experiment: as above
Method in brief: as §1

S. aureus Newman = experiment: as above
Method in brief: as §1

S. pneumoniae D39V = experiment: as above
Method in brief: as §1
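Wherever Bliss interaction score (quartile over a dose matrix) is given: first quartile when negative (synergy) and third quartile when positive (antagonism).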
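Wherever fitness (endpoint OD595 vs no drug) is given: OD595 on entry to stationary phase over no-drug wells; at most 1.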

CO/N=C(\C(=O)N[C@@H]1C(=O)N2C(C(=O)O)=C(COC(N)=O)CS[C@H]12)c1ccco1 [Cefuroxime] + CN(C)C(=O)C(CCN1CCC(O)(c2ccc(Cl)cc2)CC1)(c1ccccc1)c1ccccc1 [Loperamide]
fitness, B. subtilis 168 [1]
Conditions | first compound 0.04875 µg/mL | first compound 0.0975 µg/mL | first compound 0.195 µg/mL
partner 50 µg/mL | 0.0325 | 0.0377 | 0.0259
partner 100 µg/mL | 0.0294 | 0.0312 | 0.0385

fitness, B. subtilis 168 [1], one replicate
Conditions | first compound 1.562 µg/mL | first compound 3.125 µg/mL | first compound 6.25 µg/mL
partner 25 µg/mL | 0.0361 | 0.0294 | 0.0192
partner 50 µg/mL | 0.0196 | 0.033 | 0.0196
partner 100 µg/mL | 0.012 | 0.0049 | 0.0099

Conditions | Bliss interaction score
B. subtilis 168 [2] | -0.12
S. aureus DSM 20231 | -0.521
S. aureus Newman | -0.0645
S. pneumoniae D39V | -0.0403

CO/N=C(\C(=O)N[C@@H]1C(=O)N2C(C(=O)O)=C(COC(N)=O)CS[C@H]12)c1ccco1 [Cefuroxime] + CO[C@@H]1[C@@H](OC(N)=O)[C@@H](O)[C@H](Oc2ccc3c(O)c(NC(=O)c4ccc(O)c(CC=C(C)C)c4)c(=O)oc3c2C)OC1(C)C [Novobiocin]
B. subtilis 168 [1], one replicate
Conditions | fitness
first compound 0.04875 µg/mL, partner 0.0125 µg/mL | ≥ 1
first compound 0.04875 µg/mL, partner 0.025 µg/mL | 0.997
first compound 0.04875 µg/mL, partner 0.1 µg/mL | 0.563
first compound 0.04875 µg/mL, partner 0.2 µg/mL | 0.528
first compound 0.0975 µg/mL, partner 0.0125 µg/mL | 0.824
first compound 0.0975 µg/mL, partner 0.025 µg/mL | 0.893
first compound 0.0975 µg/mL, partner 0.1 µg/mL | 0.483
first compound 0.0975 µg/mL, partner 0.2 µg/mL | 0.429
first compound 0.195 µg/mL, partner 0.0125 µg/mL | 0.756
first compound 0.195 µg/mL, partner 0.025 µg/mL | 0.76
first compound 0.195 µg/mL, partner 0.1 µg/mL | 0.36
first compound 0.195 µg/mL, partner 0.125 µg/mL | 0.133
first compound 0.195 µg/mL, partner 0.2 µg/mL | 0.335
first compound 0.195 µg/mL, partner 0.25 µg/mL | 0.108
first compound 0.195 µg/mL, partner 0.5 µg/mL | 0.017
first compound 0.39 µg/mL, partner 0.125 µg/mL | 0.116
first compound 0.39 µg/mL, partner 0.25 µg/mL | 0.0783
first compound 0.39 µg/mL, partner 0.5 µg/mL | 0
first compound 0.78 µg/mL, partner 0.125 µg/mL | 0.0821
first compound 0.78 µg/mL, partner 0.25 µg/mL | 0.0334
first compound 0.78 µg/mL, partner 0.5 µg/mL | 0.0061
first compound 1.562 µg/mL, partner 0.0125 µg/mL | 0.318
first compound 1.562 µg/mL, partner 0.025 µg/mL | 0.274
first compound 1.562 µg/mL, partner 0.05 µg/mL | 0.263
first compound 3.125 µg/mL, partner 0.0125 µg/mL | 0.264
first compound 3.125 µg/mL, partner 0.025 µg/mL | 0.23
first compound 3.125 µg/mL, partner 0.05 µg/mL | 0.189
first compound 6.25 µg/mL, partner 0.0125 µg/mL | 0.249
first compound 6.25 µg/mL, partner 0.025 µg/mL | 0.178
first compound 6.25 µg/mL, partner 0.05 µg/mL | 0.159

B. subtilis 168 [1], partner 0.05 µg/mL
Conditions | fitness
first compound 0.0975 µg/mL | 0.665
first compound 0.195 µg/mL | 0.555

Conditions | Bliss interaction score
B. subtilis 168 [2] | -0.0729
S. aureus DSM 20231 | 0.119
S. aureus Newman | -0.131
S. pneumoniae D39V | 0.0773

CO/N=C(\C(=O)N[C@@H]1C(=O)N2C(C(=O)O)=C(COC(N)=O)CS[C@H]12)c1ccco1 [Cefuroxime] + COc1cc(Cc2cnc(N)nc2N)cc(OC)c1OC [Trimethoprim]
fitness, B. subtilis 168 [1], one replicate
Conditions | partner 0.1 µg/mL | partner 0.125 µg/mL | partner 0.2 µg/mL | partner 0.25 µg/mL | partner 0.4 µg/mL | partner 1 µg/mL | partner 2 µg/mL
first compound 0.04875 µg/mL | – | 0.392 | – | 0.382 | – | 0.37 | 0.375
first compound 0.0975 µg/mL | – | 0.443 | – | 0.46 | – | 0.315 | 0.247
first compound 0.195 µg/mL | 0.325 | – | 0.259 | – | 0.115 | 0.279 | 0.147
first compound 0.39 µg/mL | 0.162 | 0.227 | 0.262 | – | 0.207 | – | –
first compound 0.78 µg/mL | 0.237 | 0.155 | 0.221 | – | 0.17 | – | –

fitness, B. subtilis 168 [1]
Conditions | first compound 0.04875 µg/mL | first compound 0.0975 µg/mL | first compound 0.195 µg/mL | first compound 0.39 µg/mL | first compound 0.78 µg/mL | first compound 1.562 µg/mL | first compound 3.125 µg/mL | first compound 6.25 µg/mL
partner 0.125 µg/mL | – | – | 0.289 | – | – | – | – | –
partner 0.25 µg/mL | – | – | 0.315 | 0.187 | 0.178 | – | – | –
partner 0.5 µg/mL | 0.397 | 0.407 | 0.29 | 0.19 | 0.168 | 0.286 | 0.26 | 0.255

Conditions | Bliss interaction score
B. subtilis 168 [2] | 0.098
S. aureus DSM 20231 | -0.188
S. aureus Newman | -0.438
S. pneumoniae D39V | -0.0241

CO/N=C(\C(=O)N[C@@H]1C(=O)N2C(C(=O)O)=C(COC(N)=O)CS[C@H]12)c1ccco1 [Cefuroxime] + C[C@H]1COc2c(N3CCN(C)CC3)c(F)cc3c(=O)c(C(=O)O)cn1c23 [Levofloxacin]
fitness, B. subtilis 168 [1], one replicate
Conditions | first compound 0.04875 µg/mL | first compound 0.0975 µg/mL | first compound 0.195 µg/mL | first compound 0.39 µg/mL | first compound 0.78 µg/mL | first compound 1.562 µg/mL | first compound 3.125 µg/mL | first compound 6.25 µg/mL
partner 0.001 µg/mL | – | – | 0.284 | 0.15 | 0.156 | – | – | –
partner 0.002 µg/mL | 0.503 | 0.466 | – | 0.146 | 0.112 | – | – | –
partner 0.0039 µg/mL | 0.498 | 0.456 | – | 0.127 | 0.0881 | – | – | –
partner 0.0078 µg/mL | 0.432 | 0.397 | 0.334 | – | – | – | – | –
partner 0.0312 µg/mL | 0.055 | 0.0225 | 0.0495 | – | – | 0.0432 | 0.0263 | 0.0208
partner 0.0625 µg/mL | 0.0626 | 0.0281 | 0.0412 | – | – | 0.0291 | 0.027 | 0.0162
partner 0.125 µg/mL | 0.0489 | 0.0206 | 0.0412 | – | – | 0.0267 | 0.0197 | 0.0093

B. subtilis 168 [1], first compound 0.195 µg/mL
Conditions | fitness
partner 0.002 µg/mL | 0.291
partner 0.0039 µg/mL | 0.267

Conditions | Bliss interaction score
B. subtilis 168 [2] | -0.0899
S. aureus DSM 20231 | -0.22
S. aureus Newman | -0.146
S. pneumoniae D39V | 0.0603
